ChEMBL document CHEMBL1155923, “Anti-HBV agents. Part 1: Synthesis of alisol A derivatives: a new class of hepatitis B virus inhibitors” (Bioorg Med Chem Lett, 2008)

Columns and labels:
[1] = Cytotoxicity against human HepG2.2.15 cells; assay type: cell-based, HepG2 2.2.15
Hepatitis B virus [2] = assay: Antiviral activity against hepatitis B virus-infected human HepG2.2.15 cells assessed as inhibition of HBV e antigen secretion; assay type: functional, organism-based; settings: HepG2 2.2.15
Hepatitis B virus [3] = assay: Antiviral activity against hepatitis B virus-infected human HepG2.2.15 cells assessed as inhibition of HBV surface antigen secretion; assay type: functional, organism-based; settings: HepG2 2.2.15
[4] = Selectivity index, ratio of CC50 for human HepG2.2.15 cells to IC50 for HBV e antigen secretion; assay type: functional
[5] = Selectivity index, ratio of CC50 for human HepG2.2.15 cells to IC50 for HBV surface antigen secretion; assay type: functional

| SMILES | IC50 (Hepatitis B virus [2]) | IC50 (Hepatitis B virus [3]) | CC50 [1] | Ratio CC50/IC50 [4] | Ratio CC50/IC50 [5] |
| --- | --- | --- | --- | --- | --- |
| CC(=O)O[C@@H](C[C@@H](C)[C@]12CC[C@@]3(C)[C@@]1(C[C@H](OC(C)=O)[C@H]1[C@@]4(C)CCC(=O)C(C)(C)[C@@H]4CC[C@@]13C)O2)[C@@H](OC(C)=O)C(C)(C)O | > 2000 µM | > 2000 µM | > 2000 µM | – | – |
| C[C@H](C[C@H](O)[C@@H](O)C(C)(C)O)[C@]12CC[C@@]3(C)[C@@]1(C[C@H](O)[C@H]1[C@@]4(C)CCC(=O)C(C)(C)[C@@H]4CC[C@@]13C)O2 | 1100 µM | 45 µM | 430 µM | 0.39 | 9.6 |
| C=C(C)[C@H](OC(=O)C(C)C)[C@H](C[C@@H](C)C1=C2C[C@H](OC(=O)C(C)C)[C@H]3[C@@]4(C)CCC(=O)C(C)(C)[C@@H]4CC[C@]3(C)[C@@]2(C)CC1)OC(=O)C(C)C | > 1600 µM | > 1600 µM | > 1600 µM | – | – |
| C[C@H](C[C@H](O)[C@@H](O)C(C)(C)O)C1=C2C[C@H](O)[C@H]3[C@@]4(C)CCCC(C)(C)[C@@H]4CC[C@]3(C)[C@@]2(C)CC1 | 5100 µM | 80 µM | < 80 µM | <0.016 | <1 |
| C=C(C)[C@H](OC(=O)CC)[C@H](C[C@@H](C)[C@]12CC[C@@]3(C)[C@@]1(C[C@H](OC(=O)CC)[C@H]1[C@@]4(C)CCC(=O)C(C)(C)[C@@H]4CC[C@@]13C)O2)OC(=O)CC | > 2500 µM | 160 µM | > 2500 µM | – | >16 |
| C=C(C)[C@H](OC(=O)/C=C/c1ccccc1)[C@H](C[C@@H](C)C1=C2C[C@H](OC(=O)/C=C/c3ccccc3)[C@H]3[C@@]4(C)CCC(=O)C(C)(C)[C@@H]4CC[C@]3(C)[C@@]2(C)CC1)OC(=O)/C=C/c1ccccc1 | > 1800 µM | > 1800 µM | > 1800 µM | – | – |
| CCC(=O)O[C@@H](C[C@@H](C)C1=C2C[C@H](OC(=O)CC)[C@H]3[C@@]4(C)CCC(=O)C(C)(C)[C@@H]4CC[C@]3(C)[C@@]2(C)CC1)[C@@H](OC(=O)CC)C(C)(C)O | > 1400 µM | > 1400 µM | > 1400 µM | – | – |
| C=C(C)[C@H](OC(=O)CC)[C@H](C[C@@H](C)C1=C2C[C@H](OC(=O)CC)[C@H]3[C@@]4(C)CCC(=O)C(C)(C)[C@@H]4CC[C@]3(C)[C@@]2(C)CC1)OC(=O)CC | > 12000 µM | > 12000 µM | > 1200 µM | – | – |
| C=C(C)[C@H](OC(=O)c1ccccc1)[C@H](C[C@@H](C)C1=C2C[C@H](OC(=O)c3ccccc3)[C@H]3[C@@]4(C)CCC(=O)C(C)(C)[C@@H]4CC[C@]3(C)[C@@]2(C)CC1)OC(=O)c1ccccc1 | > 2300 µM | > 2300 µM | > 2300 µM | – | – |
| C[C@H](C[C@H](OC(=O)c1ccccc1)[C@@H](OC(=O)c1ccccc1)C(C)(C)O)C1=C2C[C@H](OC(=O)c3ccccc3)[C@H]3[C@@]4(C)CCC(=O)C(C)(C)[C@@H]4CC[C@]3(C)[C@@]2(C)CC1 | > 1500 µM | > 1500 µM | > 1500 µM | – | – |
| CC(C)C(=O)O[C@@H](C[C@@H](C)C1=C2C[C@H](OC(=O)C(C)C)[C@H]3[C@@]4(C)CCC(=O)C(C)(C)[C@@H]4CC[C@]3(C)[C@@]2(C)CC1)[C@@H](OC(=O)C(C)C)C(C)(C)O | 900 µM | 1700 µM | > 2200 µM | >2.4 | >1.3 |
| C[C@H](C[C@H](OC(=O)/C=C/c1ccccc1)[C@@H](OC(=O)/C=C/c1ccccc1)C(C)(C)O)[C@]12CC[C@@]3(C)[C@@]1(C[C@H](OC(=O)/C=C/c1ccccc1)[C@H]1[C@@]4(C)CCC(=O)C(C)(C)[C@@H]4CC[C@@]13C)O2 | 1000 µM | > 1300 µM | > 1300 µM | >1.3 | – |
| C=C(C)[C@H](OC(C)=O)[C@H](C[C@@H](C)[C@]12CC[C@@]3(C)[C@@]1(C[C@H](OC(C)=O)[C@H]1[C@@]4(C)CCC(=O)C(C)(C)[C@@H]4CC[C@@]13C)O2)OC(C)=O | 28 µM | 24 µM | > 2600 µM | >93 | >108 |
| C=C(C)[C@H](OC(=O)c1ccccc1)[C@H](C[C@@H](C)[C@]12CC[C@@]3(C)[C@@]1(C[C@H](OC(=O)c1ccccc1)[C@H]1[C@@]4(C)CCC(=O)C(C)(C)[C@@H]4CC[C@@]13C)O2)OC(=O)c1ccccc1 | > 1600 µM | > 1600 µM | > 1600 µM | – | – |
| C=C(C)[C@H](OC(=O)C(C)C)[C@H](C[C@@H](C)[C@]12CC[C@@]3(C)[C@@]1(C[C@H](OC(=O)C(C)C)[C@H]1[C@@]4(C)CCC(=O)C(C)(C)[C@@H]4CC[C@@]13C)O2)OC(=O)C(C)C | > 1300 µM | > 1300 µM | > 1300 µM | – | – |

Continued, in another order:

| IC50 (Hepatitis B virus [2]) | IC50 (Hepatitis B virus [3]) | SMILES | CC50 [1] | Ratio CC50/IC50 [4] | Ratio CC50/IC50 [5] |
| --- | --- | --- | --- | --- | --- |
| 29 µM | 28 µM | C=C(C)[C@H](OC(C)=O)[C@H](C[C@@H](C)C1=C2C[C@H](OC(C)=O)[C@H]3[C@@]4(C)CCC(=O)C(C)(C)[C@@H]4CC[C@]3(C)[C@@]2(C)CC1)OC(C)=O | 520 µM | 18 | 18 |
| > 2400 µM | 39 µM | C[C@H](C[C@H](O)[C@@H](O)C(C)(C)O)C1=C2C[C@H](O)[C@H]3[C@@]4(C)CCC(=O)C(C)(C)[C@@H]4CC[C@]3(C)[C@@]2(C)CC1 [ALISOL A] | 62 µM | <0.03 | 1.6 |
| > 1400 µM | > 1400 µM | C[C@H](C[C@H](OC(=O)/C=C/c1ccccc1)[C@@H](OC(=O)/C=C/c1ccccc1)C(C)(C)O)C1=C2C[C@H](OC(=O)/C=C/c3ccccc3)[C@H]3[C@@]4(C)CCC(=O)C(C)(C)[C@@H]4CC[C@]3(C)[C@@]2(C)CC1 | > 1400 µM | – | – |
| 1100 µM | > 1700 µM | C[C@H](C[C@H](OC(=O)c1ccccc1)[C@@H](OC(=O)c1ccccc1)C(C)(C)O)[C@]12CC[C@@]3(C)[C@@]1(C[C@H](OC(=O)c1ccccc1)[C@H]1[C@@]4(C)CCC(=O)C(C)(C)[C@@H]4CC[C@@]13C)O2 | > 1700 µM | >1.5 | – |
| > 1900 µM | > 1900 µM | CC(C)C(=O)O[C@@H](C[C@@H](C)[C@]12CC[C@@]3(C)[C@@]1(C[C@H](OC(=O)C(C)C)[C@H]1[C@@]4(C)CCC(=O)C(C)(C)[C@@H]4CC[C@@]13C)O2)[C@@H](OC(=O)C(C)C)C(C)(C)O | > 1900 µM | – | – |
| > 1200 µM | > 1200 µM | CCC(=O)O[C@@H](C[C@@H](C)[C@]12CC[C@@]3(C)[C@@]1(C[C@H](OC(=O)CC)[C@H]1[C@@]4(C)CCC(=O)C(C)(C)[C@@H]4CC[C@@]13C)O2)[C@@H](OC(=O)CC)C(C)(C)O | > 1200 µM | – | – |
| 29 µM | 29 µM | Cc1ccc(S(=O)(=O)N/N=C2\CC[C@@]3(C)[C@@H](CC[C@@]4(C)[C@H]3[C@@H](O)CC3=C([C@H](C)C[C@H](O)[C@@H](O)C(C)(C)O)CC[C@@]34C)C2(C)C)cc1 | < 29 µM | <1 | <1 |
| > 1600 µM | > 1600 µM | C=C(C)[C@H](OC(=O)/C=C/c1ccccc1)[C@H](C[C@@H](C)[C@]12CC[C@@]3(C)[C@@]1(C[C@H](OC(=O)/C=C/c1ccccc1)[C@H]1[C@@]4(C)CCC(=O)C(C)(C)[C@@H]4CC[C@@]13C)O2)OC(=O)/C=C/c1ccccc1 | > 1600 µM | – | – |
| > 2000 µM | > 2000 µM | CC(=O)O[C@@H](C[C@@H](C)C1=C2C[C@H](OC(C)=O)[C@H]3[C@@]4(C)CCC(=O)C(C)(C)[C@@H]4CC[C@]3(C)[C@@]2(C)CC1)[C@@H](OC(C)=O)C(C)(C)O | > 2000 µM | – | – |
